Results reported in ChEMBL document CHEMBL3286145, “Evaluation of the antiprion activity of 6-aminophenanthridines and related heterocycles” (Eur J Med Chem, 2014).
Active and inactive are the calls of the source. No cut-off for these calls is given here.

Assays:
Saccharomyces cerevisiae [1] = test: Antiprion activity against yeast STRg6 prion protein [PSI+] at 50 nmole by colorimetric assay
Saccharomyces cerevisiae [2] = test: Antiprion activity against yeast SB34 prion protein [URE3] at 50 nmole by colorimetric assay

CC[C@H](CO)Nc1nc2ccccc2c2ccccc12
antiprion activity (active/not active) (Saccharomyces cerevisiae [1]): inactive | antiprion activity (active/not active) (Saccharomyces cerevisiae [2]): inactive

Nc1nc2ccc(OC(F)(F)F)cc2c2ccccc12
antiprion activity (active/not active) (Saccharomyces cerevisiae [1]): Active | antiprion activity (active/not active) (Saccharomyces cerevisiae [2]): inactive

Cc1ccc2c(N)nc3ccccc3c2c1
antiprion activity (active/not active) (Saccharomyces cerevisiae [1]): Active | antiprion activity (active/not active) (Saccharomyces cerevisiae [2]): Active

Nc1nc2ccccc2c2cccc(F)c12
antiprion activity (active/not active) (Saccharomyces cerevisiae [1]): Active | antiprion activity (active/not active) (Saccharomyces cerevisiae [2]): Active

Nc1nc2ncccc2c2ccccc12
antiprion activity (active/not active) (Saccharomyces cerevisiae [1]): inactive | antiprion activity (active/not active) (Saccharomyces cerevisiae [2]): inactive

Nc1cccc2c1c(N)nc1ccccc12
antiprion activity (active/not active) (Saccharomyces cerevisiae [1]): Active | antiprion activity (active/not active) (Saccharomyces cerevisiae [2]): Active

Nc1nc2ccccc2c2c1CC=CC2
antiprion activity (active/not active) (Saccharomyces cerevisiae [1]): Active | antiprion activity (active/not active) (Saccharomyces cerevisiae [2]): Active

CN[S+]([O-])c1ccc2c(N)nc3ccccc3c2c1 (stereo not given)
antiprion activity (active/not active) (Saccharomyces cerevisiae [1]): inactive | antiprion activity (active/not active) (Saccharomyces cerevisiae [2]): inactive

Nc1nc2ccccc2c2cnccc12
antiprion activity (active/not active) (Saccharomyces cerevisiae [1]): inactive | antiprion activity (active/not active) (Saccharomyces cerevisiae [2]): inactive

Nc1nc2cccnc2c2ccccc12
antiprion activity (active/not active) (Saccharomyces cerevisiae [1]): inactive | antiprion activity (active/not active) (Saccharomyces cerevisiae [2]): inactive

[N-]=[N+]=Nc1ccc2c(c1)c(N)nc1ccccc12
antiprion activity (active/not active) (Saccharomyces cerevisiae [1]): Active | antiprion activity (active/not active) (Saccharomyces cerevisiae [2]): Active

Nc1nc2ccccc2c2cccc([N+](=O)[O-])c12
antiprion activity (active/not active) (Saccharomyces cerevisiae [1]): Active | antiprion activity (active/not active) (Saccharomyces cerevisiae [2]): Active

Nc1nc2ccccc2c2c1CCCC2
antiprion activity (active/not active) (Saccharomyces cerevisiae [1]): Active | antiprion activity (active/not active) (Saccharomyces cerevisiae [2]): Active

Cc1ccc2nc(N)c3ccccc3c2c1
antiprion activity (active/not active) (Saccharomyces cerevisiae [1]): Active | antiprion activity (active/not active) (Saccharomyces cerevisiae [2]): inactive

Nc1nc2ccccc2c2ccc(C(F)(F)F)cc12
antiprion activity (active/not active) (Saccharomyces cerevisiae [1]): Active | antiprion activity (active/not active) (Saccharomyces cerevisiae [2]): Active

COc1cc(OC)c2nc(N)c3ccccc3c2c1
antiprion activity (active/not active) (Saccharomyces cerevisiae [1]): Active | antiprion activity (active/not active) (Saccharomyces cerevisiae [2]): inactive

Nc1nc2ccccc2c2cc(F)ccc12
antiprion activity (active/not active) (Saccharomyces cerevisiae [1]): Active | antiprion activity (active/not active) (Saccharomyces cerevisiae [2]): Active

Cc1ccc2c(N)nc3ccccc3c2n1
antiprion activity (active/not active) (Saccharomyces cerevisiae [1]): inactive | antiprion activity (active/not active) (Saccharomyces cerevisiae [2]): inactive

Nc1nc2ccccc2c2ccccc12
antiprion activity (active/not active) (Saccharomyces cerevisiae [1]): Active | antiprion activity (active/not active) (Saccharomyces cerevisiae [2]): Active

Nc1nc2ccccc2c2ccc(F)cc12
antiprion activity (active/not active) (Saccharomyces cerevisiae [1]): Active | antiprion activity (active/not active) (Saccharomyces cerevisiae [2]): Active

Nc1ccc2c(c1)c(N)nc1ccccc12
antiprion activity (active/not active) (Saccharomyces cerevisiae [1]): Active | antiprion activity (active/not active) (Saccharomyces cerevisiae [2]): inactive

Nc1nc2ccccc2c2cc([N+](=O)[O-])ccc12
antiprion activity (active/not active) (Saccharomyces cerevisiae [1]): Active | antiprion activity (active/not active) (Saccharomyces cerevisiae [2]): inactive

Nc1nc2ccncc2c2ccccc12
antiprion activity (active/not active) (Saccharomyces cerevisiae [1]): inactive | antiprion activity (active/not active) (Saccharomyces cerevisiae [2]): inactive

Nc1nc2ccccc2c2ccc([N+](=O)[O-])cc12
antiprion activity (active/not active) (Saccharomyces cerevisiae [1]): Active | antiprion activity (active/not active) (Saccharomyces cerevisiae [2]): Active

COc1ccc(CCNc2nc3ccccc3c3ccccc23)cc1OC
antiprion activity (active/not active) (Saccharomyces cerevisiae [1]): inactive | antiprion activity (active/not active) (Saccharomyces cerevisiae [2]): inactive
